Results on 52 molecules are retold here after PubChem BioAssay AID1996.

≈ marks a conversion by molar mass, not a printed value.

The conditions of this data set: buffer; pH 7.4; 200.0 µM.
In the case of `CCOCCCNC(=O)CN1CCN(Cc2ccc(Cl)cc2)C1=O`, the solubility (kinetic) was determined as 46.6 µg/mL (≈ 132 µM).
The value for `CC(C)N1CC(C(=O)Nc2ccc(Cl)c([N+](=O)[O-])c2)CC1=O` (configuration not stated) was 45.4 µg/mL (≈ 139 µM); that for `CN(C)C(=O)c1cc(C(=O)c2c(F)cccc2F)c[nH]1` was more than 41.7 µg/mL; that for `COC(=O)c1ccc(COC(=O)c2cccn2C)o1` was 27.1 µg/mL (≈ 103 µM).
The molecule `O=C1Nc2ccccc2/C1=C/c1nc2ccccc2c(=O)n1-c1ccc(O)cc1` yielded a solubility (kinetic) of 1.9 µg/mL (≈ 4.98 µM). Compared with the last molecule, the solubility kinetic is about 14-fold lower.
The value for `Cc1c(C(=O)O)sc2nc3n(c(=O)c12)CCC3` was more than 37.5 µg/mL.
The value for `O=C1N(CCCl)c2ccc(Br)cc2C12OCCO2` was 48.1 µg/mL (≈ 145 µM); that for `O=C(OCC(=O)c1ccc[nH]1)c1ccc(F)c(S(=O)(=O)N2CCOCC2)c1` was 7.8 µg/mL (≈ 19.7 µM); that for `CCCOC(=O)CC1C(=O)NCCN1C(=O)OC(C)(C)C` (configuration not stated) was more than 45.1 µg/mL.
The same measure for `CNCCc1ccc(O)c(O)c1.Cl`: 17.2 µg/mL.
With `CCc1cccc(C)c1NC(=O)COC(=O)CSCc1ccccc1`, the solubility (kinetic) is 13.7 µg/mL (≈ 38.3 µM).
The value for `CC(=O)N1CCN(C(=O)c2cc3c(s2)CCCC3)CC1` was more than 43.9 µg/mL; that for `C=CCN(CC(=O)O)S(=O)(=O)c1ccccc1C(F)(F)F` was more than 48.5 µg/mL; that for `CN(C)c1ccc(CNc2ccccn2)cc1` was 22.3 µg/mL (≈ 98.1 µM).
The value for `Cc1csc(SCC(=O)Nc2ccc(C)c(F)c2)n1` was more than 44.5 µg/mL.
The molecule `Nc1cccc(Oc2cnccn2)c1` yielded a kinetic solubility of more than 28.1 µg/mL.
`Cc1cccc(-n2ccc(=O)c(C(=O)O)n2)c1`: the kinetic solubility was more than 34.5 µg/mL.
The same measure for `CCCNC(=O)c1ccc(COc2ccc(C(C)(C)C)cc2)o1`: 10.9 µg/mL (≈ 34.6 µM); for `O=C(Nc1ccccc1F)C1CCCC1`: 23.4 µg/mL (≈ 113 µM); for `COC1CCCCC1NCCc1ccccc1.O=C(O)C(=O)O` (configuration not stated): more than 48.5 µg/mL.
The same measure for `Cc1ccccc1NC(=O)c1ccc(OCc2c(C)noc2C)cc1`: 42.3 µg/mL (≈ 126 µM); for `COc1ccc(Cl)cc1NC(=O)Nc1cnccn1`: 0.4 µg/mL (≈ 1.44 µM); for `COc1ccc2c(c1)c(C(=O)O)c(C)n2CCc1ccc(OC)c(OC)c1`: more than 55.4 µg/mL.
Take `O=C(Cc1ccc(Cl)cc1)NC1CCS(=O)(=O)C1` (configuration not stated): the solubility (kinetic) is more than 43.2 µg/mL.
`CCOC(=O)c1sc(=S)n(-c2ccccc2)c1C`: the solubility (kinetic) is 3.4 µg/mL (≈ 12.2 µM).
The same measure for `COc1ccc(CNC(=O)CCC(=O)Nc2cccnc2)cc1`: 42.3 µg/mL (≈ 135 µM).
The value for `CCNc1c(NCC)c(=O)c1=O` was 23.2 µg/mL (≈ 138 µM).
The same measure for `COc1ccc(C(C)(C)C)cc1NC(=O)C1CCCO1` (configuration not stated): 41.5 µg/mL (≈ 150 µM).
Take `Cc1cccc(C(=O)N2CCCC(Nc3ccc(C)c(C)c3)C2)n1` (configuration not stated): the solubility (kinetic) was determined as 42.1 µg/mL (≈ 130 µM).
`CC1(NC(=O)C2CCCCC2)CCS(=O)(=O)C1` (configuration not stated) gave a kinetic solubility of 35.1 µg/mL (≈ 135 µM).
Consider `Cc1ccc(S(=O)(=O)N2CCC(C(=O)NCCN3CCOCC3)CC2)cc1C`, for which the kinetic solubility was 58.4 µg/mL (≈ 143 µM).
The value for `CCC1(c2ccc(F)cc2)NC(=O)N(CC(=O)N2CCN(C(=O)c3ccco3)CC2)C1=O` (configuration not stated) was more than 66.4 µg/mL; that for `O=C(OCC(=O)N1CCCCC1)c1c[nH]c2ccccc12` was more than 42.9 µg/mL; that for `CCOc1ccc(NC(=O)COC(=O)CN2CCCCCC2=O)cc1` was more than 52.3 µg/mL.
The same measure for `CC(C)(C)NC(=O)COc1ccc2oc3c(c2c1)CCCC3`: 2.2 µg/mL (≈ 7.3 µM); for `Cc1ccc(C(=O)O)cc1N=Nc1c(O)[nH]c(=O)[nH]c1=O`: more than 43.5 µg/mL; for `CNc1snc(C)c1C(=O)OCC(=O)N(C)c1ccccc1`: more than 47.9 µg/mL.
The value for `C=CCn1cccc(C(=O)Nc2ccc(N(C)C)cc2)c1=O` was more than 44.6 µg/mL.
Molecule `CCc1ccc(S(=O)(=O)NC2CCCCNC2=O)cc1` (configuration not stated) showed a solubility (kinetic) of more than 44.5 µg/mL.
The same measure for `Cn1c(=O)c2c(ncn2CCC(=O)N/N=C/c2cccnc2)n(C)c1=O`: more than 53.3 µg/mL; for `Cc1cc(C(=O)O)ccc1N=Cc1c(O)ccc2ccccc12`: more than 45.8 µg/mL; for `CC(C)(C)c1csc(NC(=O)c2ccccc2O)n1`: 9.3 µg/mL (≈ 33.7 µM).
The same measure for `CCN1CCN(S(=O)(=O)c2ccc(C(C)(C)C)cc2)CC1`: 45.6 µg/mL (≈ 147 µM); for `CC1C(=O)N2CCCc3cc(NC(=O)C(=O)NCc4ccccn4)cc1c32` (configuration not stated): more than 54.7 µg/mL.
The value for `O=C(O)c1cc(Cl)c(Cl)cc1C(=O)NCc1ccco1` was more than 47.1 µg/mL; that for `C=CCN(c1ccccc1)S(=O)(=O)c1c(C)[nH]c(=O)[nH]c1=O` was more than 48.2 µg/mL.
As for `CCCSc1nc2c(c(=O)[nH]c(=O)n2C)n1Cc1ccccc1`, the solubility (kinetic) is 1.6 µg/mL (≈ 4.84 µM).
In turn, `Cc1ccccc1S(=O)(=O)/N=C(/c1ccccc1)N(C)C` gave a kinetic solubility of 44.9 µg/mL (≈ 148 µM).
The value for `CCN1CCN(C(=O)/C(=C/c2cccs2)NC(=O)c2ccc(C)c(C)c2)CC1` was 48.5 µg/mL (≈ 122 µM).
The value for `O=C(NCc1csc(-c2cccs2)n1)C1CC1` was 34.3 µg/mL (≈ 130 µM); that for `COc1ccc(C(=O)N2CCN(Cc3nc(CC4CC4)no3)CC2)cc1` was more than 53.5 µg/mL; that for `O=C(NC(=O)N1CCCCC1)c1ccccc1` was 31.7 µg/mL (≈ 136 µM).

One may read the solubility (kinetic) as solubility judged after dilution from a stock solution rather than from solid.
